As usually defined, the Kd is the equilibrium constant for the complex coming apart. By IC50 is commonly meant the point on the concentration scale where inhibition reaches its midpoint.

One assay concerns the target T1, JAK2 (Homo sapiens, UniProt O60674).
T1 construct: made in house; host or cells: T7 phage display or HEK-293 cells (alternatives)
Kind of assay: Competition binding assay to determine binding constants (Kd), JAK2. The text has this:
(§1) Competition Binding Assay to Determine Binding Constants (Kd) of the Compounds Against JAK Kinases
(§2) Competition binding assays used herein were developed, validated and performed as described in Fabian et al., Nature Biotechnology 2005, 23, 329-336. Kinases were produced as fusions to T7 phage (See, Fabian et al. or WO04/015142) or alternatively, the kinases were expressed in HEK-293 cells and subsequently tagged with DNA for PCR detection (See, WO08/005,310). For the binding assays, streptavidin-coated magnetic beads were treated with biotinylated affinity ligands for 30 min at rt to generate affinity resins. The liganded beads were blocked with excess biotin and washed with blocking buffer (SeaBlock (Pierce), 1% BSA, 0.05% Tween 20, 1 mM DTT) to remove unbound ligand and to reduce non-specific binding. Binding reactions were assembled by combining kinase, liganded affinity beads, and test compounds in 1× binding buffer (20% SeaBlock, 0.17×PBS, 0.05% Tween 20, 6 mM DTT). Test compounds were prepared as 100× stocks in DMSO and rapidly diluted into the aqueous environment. DMSO was added to control assays lacking a test compound. Primary screen interactions were performed in polypropylene 384-well plates in a final volume of 34 μL, while Kd determinations were performed in polystyrene 96-well plates in a final volume of 135 μL. The assay plates were incubated at room temperature with shaking for 1 hour, long enough for binding reactions to reach equilibrium, and the affinity beads were washed extensively with wash buffer (1×PBS, 0.05% Tween 20) to remove unbound protein. The beads were then resuspended in elution buffer (1×PBS, 0.05% Tween 20, 2 μM non-biotinylated affinity ligand) and incubated at room temperature with shaking for 30 min. The kinase concentration in the eluates was measured by quantitative PCR. Each kinase was tested individually against each compound. Kds were determined using eleven serial threefold dilutions. A selectivity score, which is a quantitative measure of selectivity of a compound against a panel of enzymes, may be calculated for a compound by dividing the number of enzymes for which a compound meets a set criteria, (for example, a binding constant of 100 nM or less), by the total number of enzymes tested.

Another assay has as its target T2, TYK2 (Homo sapiens, UniProt P29597).
T2 construct: made in house; host or cells: T7 phage display or HEK-293 cells (alternatives)
Nature of the assay: Competition binding assay to determine binding constants (Kd), TYK2.
From the text: as §1, §2

Assay [1] has as its system GM-CSFR/JAK2/STAT5 pathway. Kind of assay: CSTF-1 cell-based reporter assay. Conditions: Homo sapiens; csTF-1 cells, GM-CSF at 2 ng/mL, 4 hours, beta-lactamase reporter; read-out: Cell Assay: CS TF-1 reporter assay IC50. Here is the method:
CSTF-1 Cell-Based Reporter Assay
CSTF-1 cells are derived from the human erythroleukemia cell line that is growth dependent on GM-CSF and has an intact GM-CSFR/JAK2/STAT5 pathway. The cell line contains stably integrated beta-lactamase reporter gene under the control of the […] (irf 1) response element recognized by the activated transcription factor STAT5. csTF-1 cells (Invitrogen K1219) were washed with assay media (97% OPTIMEM/0.5% dialyzed FBS/0.1 mM NEAA/1 mM Na pyr/P/S) and seeded in the same media at 5×10^5 cell/mL in T150 flask. After 16 hour incubation, cells were seeded at 2×10^5 cell/well in 50 μl volume, into Costar, clear bottom, 96-well assay plates. Serial dilutions of compounds were added to the plates with final DMSO concentration at 0.5% and GM-CSF at 2 ng/mL and the plates were then incubated at 30° C. and 5% CO2 for 4 hours. The plates were brought to room temperature before adding Substrate Mixture according to manufacturer's protocol (Invitrogen, Catalog #K1085). The assay plates containing the substrate mixture were incubated in the dark at room temperature for 2 hours. Blue and green fluorescence was measured with excitation at 409 nm and emission at 460 nm (for blue) and excitation at 409 nm and emission at 530 nm (for green) using Spectra Max Gemini EM.
(A reporter such as luciferase makes a cellular process visible.)

The target of a further assay is T3, JAK3 (Homo sapiens, UniProt P52333).
T3 construct: made in house; host or cells: T7 phage display or HEK-293 cells (alternatives)
T3 sequence (P52333 1-1124): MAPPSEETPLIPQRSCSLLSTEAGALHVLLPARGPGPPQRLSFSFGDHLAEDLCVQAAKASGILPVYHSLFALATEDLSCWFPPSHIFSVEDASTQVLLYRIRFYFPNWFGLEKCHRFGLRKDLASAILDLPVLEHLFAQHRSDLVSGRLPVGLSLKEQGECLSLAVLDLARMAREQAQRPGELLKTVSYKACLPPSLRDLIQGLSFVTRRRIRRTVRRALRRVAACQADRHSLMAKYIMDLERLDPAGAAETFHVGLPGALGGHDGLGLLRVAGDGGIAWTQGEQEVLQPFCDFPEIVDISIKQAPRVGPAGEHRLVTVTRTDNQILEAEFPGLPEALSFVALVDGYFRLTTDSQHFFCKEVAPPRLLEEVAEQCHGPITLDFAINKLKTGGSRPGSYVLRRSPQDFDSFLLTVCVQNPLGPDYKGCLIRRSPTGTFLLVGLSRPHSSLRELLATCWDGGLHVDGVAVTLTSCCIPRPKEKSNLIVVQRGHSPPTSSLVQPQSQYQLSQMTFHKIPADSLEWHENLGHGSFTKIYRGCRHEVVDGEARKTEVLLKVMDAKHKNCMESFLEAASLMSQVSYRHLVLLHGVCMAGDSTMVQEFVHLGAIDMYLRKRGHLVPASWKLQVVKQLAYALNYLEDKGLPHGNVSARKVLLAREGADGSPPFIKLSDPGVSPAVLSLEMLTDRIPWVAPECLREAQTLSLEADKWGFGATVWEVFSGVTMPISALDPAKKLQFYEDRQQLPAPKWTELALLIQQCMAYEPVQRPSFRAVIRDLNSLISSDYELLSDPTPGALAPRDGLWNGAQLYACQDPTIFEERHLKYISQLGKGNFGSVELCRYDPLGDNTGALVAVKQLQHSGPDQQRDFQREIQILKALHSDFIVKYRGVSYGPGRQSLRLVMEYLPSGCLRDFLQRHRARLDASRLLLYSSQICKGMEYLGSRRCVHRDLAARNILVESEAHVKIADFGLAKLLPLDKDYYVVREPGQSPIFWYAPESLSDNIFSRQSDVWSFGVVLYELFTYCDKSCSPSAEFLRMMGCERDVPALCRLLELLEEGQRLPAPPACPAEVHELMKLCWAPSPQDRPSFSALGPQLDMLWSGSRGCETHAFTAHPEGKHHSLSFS
Kind of assay: Competition binding assay to determine binding constants (Kd), JAK3.
From the text: as §1, §2

T1 sequence (O60674 whole entry): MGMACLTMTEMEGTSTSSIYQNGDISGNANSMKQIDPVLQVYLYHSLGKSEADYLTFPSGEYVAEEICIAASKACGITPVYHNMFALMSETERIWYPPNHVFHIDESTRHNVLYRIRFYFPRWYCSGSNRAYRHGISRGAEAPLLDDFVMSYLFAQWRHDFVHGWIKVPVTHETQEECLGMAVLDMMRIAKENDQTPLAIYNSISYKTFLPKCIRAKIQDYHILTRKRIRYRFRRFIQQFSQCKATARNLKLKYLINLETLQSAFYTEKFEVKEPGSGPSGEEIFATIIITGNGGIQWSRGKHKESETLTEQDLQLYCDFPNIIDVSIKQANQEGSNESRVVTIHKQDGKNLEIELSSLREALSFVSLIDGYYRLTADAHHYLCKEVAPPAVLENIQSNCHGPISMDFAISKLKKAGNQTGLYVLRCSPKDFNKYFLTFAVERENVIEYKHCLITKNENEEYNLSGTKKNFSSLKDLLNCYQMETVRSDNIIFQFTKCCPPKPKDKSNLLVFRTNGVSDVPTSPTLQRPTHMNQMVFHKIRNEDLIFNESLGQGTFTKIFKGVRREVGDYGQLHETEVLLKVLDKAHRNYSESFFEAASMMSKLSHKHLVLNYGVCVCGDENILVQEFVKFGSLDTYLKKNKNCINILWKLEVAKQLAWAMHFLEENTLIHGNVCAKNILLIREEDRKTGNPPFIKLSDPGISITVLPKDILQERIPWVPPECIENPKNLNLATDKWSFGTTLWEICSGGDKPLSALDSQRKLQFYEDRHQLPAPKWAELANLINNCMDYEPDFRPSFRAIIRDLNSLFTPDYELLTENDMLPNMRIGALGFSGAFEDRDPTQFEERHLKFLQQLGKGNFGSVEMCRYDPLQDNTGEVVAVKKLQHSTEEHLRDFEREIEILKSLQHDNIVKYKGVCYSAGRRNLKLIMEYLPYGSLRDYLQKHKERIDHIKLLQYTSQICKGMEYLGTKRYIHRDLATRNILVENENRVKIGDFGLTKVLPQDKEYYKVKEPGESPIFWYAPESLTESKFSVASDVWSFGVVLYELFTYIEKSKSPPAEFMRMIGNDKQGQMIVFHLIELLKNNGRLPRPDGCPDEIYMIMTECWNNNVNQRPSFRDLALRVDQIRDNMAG
T2 sequence (P29597 whole entry): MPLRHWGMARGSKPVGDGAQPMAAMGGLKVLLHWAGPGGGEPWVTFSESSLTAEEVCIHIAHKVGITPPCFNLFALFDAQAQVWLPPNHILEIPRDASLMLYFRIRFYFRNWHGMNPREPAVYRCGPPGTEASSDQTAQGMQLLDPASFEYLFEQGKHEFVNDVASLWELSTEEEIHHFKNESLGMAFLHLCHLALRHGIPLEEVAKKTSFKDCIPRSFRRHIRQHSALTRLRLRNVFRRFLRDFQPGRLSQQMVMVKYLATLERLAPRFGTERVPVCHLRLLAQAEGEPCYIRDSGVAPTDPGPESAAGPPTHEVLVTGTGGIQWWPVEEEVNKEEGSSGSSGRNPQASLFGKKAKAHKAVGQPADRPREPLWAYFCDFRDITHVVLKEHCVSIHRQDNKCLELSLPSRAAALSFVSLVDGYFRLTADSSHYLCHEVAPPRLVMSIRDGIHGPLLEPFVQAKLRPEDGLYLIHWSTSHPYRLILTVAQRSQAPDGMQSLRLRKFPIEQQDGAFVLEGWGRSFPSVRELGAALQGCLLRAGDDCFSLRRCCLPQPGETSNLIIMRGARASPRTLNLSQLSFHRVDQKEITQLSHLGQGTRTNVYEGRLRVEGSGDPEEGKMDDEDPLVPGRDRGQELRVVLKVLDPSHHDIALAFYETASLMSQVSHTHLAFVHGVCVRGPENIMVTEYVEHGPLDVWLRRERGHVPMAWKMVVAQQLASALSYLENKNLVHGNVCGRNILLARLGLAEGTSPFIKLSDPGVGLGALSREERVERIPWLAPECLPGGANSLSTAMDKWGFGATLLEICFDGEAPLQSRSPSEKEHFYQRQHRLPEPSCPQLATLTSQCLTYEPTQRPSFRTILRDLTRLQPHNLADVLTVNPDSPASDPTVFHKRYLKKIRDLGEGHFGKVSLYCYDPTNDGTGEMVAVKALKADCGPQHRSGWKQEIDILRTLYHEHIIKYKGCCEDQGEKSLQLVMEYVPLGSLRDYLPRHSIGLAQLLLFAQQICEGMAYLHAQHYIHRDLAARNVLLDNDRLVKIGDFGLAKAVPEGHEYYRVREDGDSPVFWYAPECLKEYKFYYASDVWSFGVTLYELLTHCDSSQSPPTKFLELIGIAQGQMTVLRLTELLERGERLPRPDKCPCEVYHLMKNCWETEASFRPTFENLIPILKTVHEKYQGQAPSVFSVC

For the molecule `Cc1cc(Nc2nc(C(F)(F)c3ccc(F)cc3)nc3nn(C)cc23)n[nH]1` [Example 20, 6-(difluoro(4-fluorophenyl)methyl)-2-methyl-N-(5-methyl-1H-pyrazol-3-yl)-2H-pyrazolo[3,4-d]pyrimidin-4-amine], the Kd on JAK2 was not above 1 nM; at TYK2 it was not above 10 nM; on JAK3, 10 to 100 nM. In addition, the IC50 in assay [1] fell in the range of 100 to 500 nM.

With `Cn1cc2c(Nc3cc[nH]n3)nc(C(F)(F)c3ccc(F)cc3)nc2n1` [Example 21, 6-(difluoro(4-fluorophenyl)methyl)-2-methyl-N-(1H-pyrazol-3-yl)-2H-pyrazolo[3,4-d]pyrimidin-4-amine], the Kd at JAK2 is not above 1 nM; on TYK2, not above 10 nM; at JAK3 it was 10 to 100 nM. Moreover, the IC50 in assay [1] was in the range of 100 to 500 nM.

With `Cc1cc(Nc2nc(S(=O)(=O)c3ccc(F)cc3)nc3c2cnn3CCO)n[nH]1` [Example 23, 2-(6-(4-fluorophenylsulfonyl)-4-(5-methyl-1H-pyrazol-3-ylamino)-1H-pyrazolo[3,4-d]pyrimidin-1-yl)ethanol], the Kd at JAK2 was not above 1 nM; on TYK2, not above 10 nM; on JAK3, 10 to 100 nM. Also, the IC50 in assay [1] is 100 to 500 nM.

Take `CCn1ncc2c(Nc3cc(C)[nH]n3)nc(S(=O)(=O)c3ccc(F)cc3)nc21` [Example 24, 1-ethyl-6-(4-fluorophenylsulfonyl)-N-(5-methyl-1H-pyrazol-3-yl)-1H-pyrazolo[3,4-d]pyrimidin-4-amine]: the results for the Kd on JAK2, at TYK2 and at JAK3 were not above 1 nM, not above 10 nM and 10 to 100 nM, respectively. In addition, the IC50 in assay [1] was not above 100 nM.

As to `Cc1cc(Nc2nc(S(=O)(=O)c3ccc(F)cc3)nc3c2cnn3C(C)(C)C)n[nH]1` [Example 25, 1-tert-butyl-6-(4-fluorophenylsulfonyl)-N-(5-methyl-1H-pyrazol-3-yl)-1H-pyrazolo[3,4-d]pyrimidin-4-amine], the results for the Kd at JAK2, at TYK2 and on JAK3 were 1 to 10 nM, not above 10 nM and more than 100 nM, respectively. For the same molecule, the IC50 in assay [1] was in the range of 100 to 500 nM.

Consider `Cc1cc(Nc2nc(C(F)(F)c3ccc(F)cc3)nc3c2cnn3C)n[nH]1` [Example 26, 6-(difluoro(4-fluorophenyl)methyl)-1-methyl-N-(5-methyl-1H-pyrazol-3-yl)-1H-pyrazolo[3,4-d]pyrimidin-4-amine], for which the Kd is not above 1 nM on JAK2, not above 10 nM on TYK2 and 10 to 100 nM at JAK3. Also, the IC50 in assay [1] lay within 100 to 500 nM.

In the case of `Cc1cc(Nc2nc(S(=O)(=O)c3ccc(F)cc3)nc3[nH]ncc23)n[nH]1` [Example 27, 6-(4-fluorophenylsulfonyl)-N-(5-methyl-1H-pyrazol-3-yl)-1H-pyrazolo[3,4-d]pyrimidin-4-amine], the Kd is not above 1 nM on JAK2, not above 10 nM at TYK2 and 10 to 100 nM at JAK3. Further, in assay [1], the IC50 was in the range of 100 to 500 nM.

Take `Cc1cc(Nc2nc(S(=O)(=O)c3ccc(F)cc3)nc3c2cnn3C2CCOCC2)n[nH]1` [Example 28, 6-(4-fluorophenylsulfonyl)-N-(5-methyl-1H-pyrazol-3-yl)-1-(tetrahydro-2H-pyran-4-yl)-1H-pyrazolo[3,4-d]pyrimidin-4-amine]: the Kd is not above 1 nM on JAK2, not above 10 nM on TYK2 and 10 to 100 nM at JAK3. In assay [1], the IC50 is 100 to 500 nM.

`Cc1cc(Nc2nc(S(=O)(=O)c3ccc(F)cc3)nc3c2cnn3CCN2CCOCC2)n[nH]1` [Example 29, 6-(4-fluorophenylsulfonyl)-N-(5-methyl-1H-pyrazol-3-yl)-1-(2-morpholinoethyl)-1H-pyrazolo[3,4-d]pyrimidin-4-amine]: the dissociation constant Kd on JAK2 was not above 1 nM; at TYK2 it was not above 10 nM; at JAK3 it was 10 to 100 nM. Besides, in assay [1], the IC50 lay in the range of 100 to 500 nM.

For `Cc1cc(Nc2nc(C(F)(F)c3ccc(F)cc3)nc3[nH]ncc23)n[nH]1` [Example 30, 6-(difluoro(4-fluorophenyl)methyl)-N-(5-methyl-1H-pyrazol-3-yl)-1H-pyrazolo[3,4-d]pyrimidin-4-amine], the Kd is not above 1 nM at JAK2, not above 10 nM at TYK2 and 10 to 100 nM at JAK3. Besides, in assay [1], the IC50 is not above 100 nM.

Regarding `Cc1cc(Nc2nc(S(=O)(=O)c3ccc(F)cc3)nc3c2cnn3-c2ccccc2)n[nH]1` [Example 31, 6-(4-fluorophenylsulfonyl)-N-(5-methyl-1H-pyrazol-3-yl)-1-phenyl-1H-pyrazolo[3,4-d]pyrimidin-4-amine], the results for the Kd on JAK2, at TYK2 and at JAK3 were 1 to 10 nM, 10 to 100 nM and more than 100 nM, respectively. In addition, the IC50 in assay [1] was more than 500 nM.

Regarding `Cc1cc(Nc2nc(C(F)(F)c3ccc(F)cc3)nc3c2cnn3CCN2CCOCC2)n[nH]1` [Example 32, 6-(difluoro(4-fluorophenyl)methyl)-N-(5-methyl-1H-pyrazol-3-yl)-1-(2-morpholinoethyl)-1H-pyrazolo[3,4-d]pyrimidin-4-amine], the equilibrium dissociation constant (Kd) at JAK2 was 1 to 10 nM; at TYK2, not above 10 nM; on JAK3, 10 to 100 nM. Moreover, the IC50 in assay [1] lay within 100 to 500 nM.

As to `C=Cn1ncc2c(Nc3cc(C)[nH]n3)nc(C(F)(F)c3ccc(F)cc3)nc21` [Example 33, 6-(difluoro(4-fluorophenyl)methyl)-N-(5-methyl-1H-pyrazol-3-yl)-1-vinyl-1H-pyrazolo[3,4-d]pyrimidin-4-amine], the results for the Kd on JAK2, on TYK2 and on JAK3 were 1 to 10 nM, 10 to 100 nM and 10 to 100 nM, respectively. Moreover, the IC50 in assay [1] lay within 100 to 500 nM.

In the case of `Cc1cc(Nc2nc(C(F)(F)c3ccc(F)cn3)nc3c2cnn3C)n[nH]1` [Example 34, 6-(difluoro(5-fluoropyridin-2-yl)methyl)-1-methyl-N-(5-methyl-1H-pyrazol-3-yl)-1H-pyrazolo[3,4-d]pyrimidin-4-amine], the Kd at JAK2 was not above 1 nM; at TYK2, not above 10 nM; on JAK3, 10 to 100 nM. Moreover, the IC50 in assay [1] lay in the range of 100 to 500 nM.

For the origin of these results see patent US20130303533A1, “AZOLOPYRIDINE AND AZOLOPYRIMIDINE COMPOUNDS AND METHODS OF USE THEREOF” (AMBIT BIOSCIENCES CORPORATION, priority 2010, published 2013).
